This note sets out measurements from paper PMC12728205, “The solute-binding proteins DppA1–5 of Pseudomonas aeruginosa have distinct substrate profiles” (Scientific Reports, 2025).

As a reminder, the ΔTm is the change in melting temperature against a reference sample.

Peptide text beside a SMILES is read from it.

For this test, the target named is T1, DppA1 (Pseudomonas aeruginosa, UniProt A0A0H2ZGV2).
T1 construct: C-terminal TwinStrepTag, codon-optimized gene, periplasmic expression in E. coli BL21 (pET22b), StrepTrap purified
The experiment in a line: differential scanning fluorimetry (SYPRO Orange). In kind it is binding. The conditions noted are these: 10 µM protein, 250 µM peptide, PBS. Background: Differential scanning fluorimetry follows unfolding on heating by fluorescence.

T1 sequence (A0A0H2ZGV2 30-537): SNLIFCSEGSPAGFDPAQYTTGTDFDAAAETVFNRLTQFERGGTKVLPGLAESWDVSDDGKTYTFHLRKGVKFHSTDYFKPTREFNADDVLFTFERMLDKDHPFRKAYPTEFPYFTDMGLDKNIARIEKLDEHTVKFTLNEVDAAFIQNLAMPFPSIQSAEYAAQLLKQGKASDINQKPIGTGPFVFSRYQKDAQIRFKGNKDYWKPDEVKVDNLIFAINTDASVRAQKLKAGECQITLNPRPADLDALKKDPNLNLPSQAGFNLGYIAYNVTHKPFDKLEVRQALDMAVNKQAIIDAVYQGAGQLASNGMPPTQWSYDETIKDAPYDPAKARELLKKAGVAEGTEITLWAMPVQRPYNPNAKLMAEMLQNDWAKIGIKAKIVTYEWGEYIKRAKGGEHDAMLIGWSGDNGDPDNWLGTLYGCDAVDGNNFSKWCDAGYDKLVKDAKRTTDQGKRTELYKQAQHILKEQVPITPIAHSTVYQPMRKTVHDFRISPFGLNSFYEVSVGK

Regarding `C[C@H](N)C(=O)NCC(=O)O` [Ala-Gly] (H-Ala-Gly-OH), the ΔTm turned out to be 8.6 °C.
